PubChem BioAssay AID1963421 (Molecular Pharmacology Branch, DTP, NCI, 2024)

Tested on: 519858-162-T-J1-PDC complex spheroid growth, % test/control
Test: Anticancer human tumor 519858-162-T-J1-PDC patient-derived colon adenocarcinoma cell line growth inhibition [Asc]
Details: for IC50: curve of first compound; for viability, T/C: stronger effect = lower value
Method: Multicellular complex tumor spheroid response to apoptosis pathway targeting inhibitors Alrizomadlin, Pelcitoclax, and Dasminapant in combination with a variety of drugs and investigational agents in selected tumor cell lines
The MDM2 inhibitor alrizomadlin, the Bcl-2/Bcl-xL inhibitor pelcitoclax, and the IAPs inhibitor dasminapant were evaluated both individually and in combination with standard of care and investigational anticancer small molecules within a complex spheroid model of solid tumors. . Complex spheroids include a stromal component modeled by human endothelial cells (HUVEC) and fibroblasts modeled by human mesenchymal stem cells (MSCs). The concentration ranges selected for each drug and investigational agent were based upon clinically achievable concentrations if the clinical Cmax of the agent was known.
Compounds. The drugs and investigational agents: alrizomadlin (APG-115; NSC831270), pelcitoclax (APG-1252; NSC835773), dasminapant (APG-1387;NSC834197), TAK-243 (NSC785004), copanlisib (NSC809693), olaparib (NSC753686), talazoparib (NSC767125), cobimetinib (NSC 768068), eltanexor (KPT-8602, NSC 794443), abemaciclib (NSC 768073), sotorasib (NSC818433), adagrasib (NSC 831453), MRTX-1133 (NSC 836407), Iadademestat (ORY1001, NSC 806812), and RMC-4630 (NSC839698), were obtained from the NCI Developmental Therapeutics Program Chemical Repository. The FDA-approved anticancer drug set is available from the Developmental Therapeutics Program at https://dtp.cancer.gov/organization/dscb/obtaining/available plates.htm. […] The stock solutions were prepared in dimethyl sulfoxide (DMSO, Sigma-Aldrich, St. Louis, MO, cat. D2650) at 800-fold the tested concentration and stored at -70 degrees C prior to their use. All drugs and investigational agents were tested over a range starting from a high concentration at or near the clinical Cmax and decreasing in half-log increments. If the clinical Cmax for an agent had not been determined, the highest concentration tested was 10 microM.
The patient-derived cancer (PDC) cell lines include five colon adenocarcinomas: 186277-243-T-J2-PDC, 616215-338-R-J1-PDC, 439559-082-T-J2-PDC, 463943-066-T-J2-PDC, and 519858-162-T-J1-PDC; three pancreatic carcinomas: 323965-272-R-J2-PDC, 521955-158-R6-J3-PDC, and 521955-158-R2-J5-PDC; two uterine sarcomas: 327498-152-R-J2-PDC and 993429-296-R-J1-PDC; two rhabdomyosarcomas: 755483-174-R-J1-PDC and 772245-204-R-J1-PDC; two soft tissue sarcomas: 126254-015-R-J1-PDC and 494315-158-R-J1-PDC; two malignant fibrous histiocytomas: 317291-083-R-J1-PDC and 596521-263-R-J1-PDC; two breast carcinomas: 171881-019-R-J1-PDC and 885512-296-R-J2-PDC; and one ovarian carcinoma: 6556581-035-R-J-PDC were obtained from the NCI PDMR, (https://pdmr.cancer.gov). The established cell lines HSSY-2 synovial sarcoma (RRID:CVCL 8719), SYO-1 synovial sarcoma (RRID:CVCL_7146), MPNST malignant peripheral neural sheath tumor were obtained from the Sloan Kettering Institute. The following established cell lines were purchased from the American Type Culture Collection (ATCC, Manassas, VA), Sor the received from the NCI repository:, PANC-1 pancreatic carcinoma (CRL-1469, RRID:CVCL_0480), OVCAR-5 ovarian carcinoma (RRID:CVCL_1628), OVCAR-8 ovarian carcinoma (RRID:CVCL_1629), , MCF-7 breast carcinoma (CRL-12584, RRID:CVCL_0031), MDA-MB-231 breast carcinoma (CRL-12532, RRID:CVCL_0062), NCI-H1876 small cell lung carcinoma (CRL-5902, RRID:CVCL_1503), NCI-H510A small cell lung carcinoma (HTB-184, RRID:CVCL_1565), NCI-H1417 (CRL-5869, RRID:CVCL_1469), and NCI-H196 small cell lung carcinoma (CRL-5823, RRID:CVCL_1509). Dr. Peter Houghton (Greehey Children's Cancer Research Institute, University of Texas Health Science Center, San Antonio, TX) provided Rh-18 rhabdomyosarcoma (RRID:CVCL_1659). Pooled donor human umbilical vein endothelial cells (HUVEC, Lonza, cat. CC-2519) and human mesenchymal stem cells (hMSC, Lonza, cat. PT-2501) were purchased from Lonza (Walkersville, MD).
Cell Culture. […]

[1] = second compound 0.00949 µM, first compound 0.0316 µM
[2] = second compound 0.00949 µM, first compound 0.1 µM
[3] = second compound 0.03 µM, first compound 0.0316 µM
[4] = second compound 0.03 µM, first compound 0.1 µM
[5] = second compound 0.0949 µM, first compound 0.0316 µM
[6] = second compound 0.0949 µM, first compound 0.1 µM
[7] = second compound 0.3 µM, first compound 0.0316 µM
[8] = second compound 0.3 µM, first compound 0.1 µM
[9] = second compound 0.949 µM, first compound 0.0316 µM
[10] = second compound 0.949 µM, first compound 0.1 µM
[11] = second compound 3 µM, first compound 0.0316 µM
[12] = second compound 3 µM, first compound 0.1 µM
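Further: seven day drug exposure begun three days after spheroid seeding.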
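Wherever viability, T/C is given: 100% = DMSO vehicle wells and lower values mean less viable spheroid.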

Compound: Cn1ncnc1[C@H]1c2n[nH]c(=O)c3cc(F)cc(c23)N[C@@H]1c1ccc(F)cc1 + CCN1C(C(=O)NC23CCC(C(=O)O)(CC2)CC3)C(c2cccc(Cl)c2F)C2(C(=O)Nc3cc(Cl)ccc32)C12CCCCC2
- IC50 (second compound 0.00949 µM): > 0.1 µM
- IC50 (second compound 0.03 µM): > 0.1 µM
- IC50 (second compound 0.0949 µM): > 0.1 µM
- IC50 (second compound 0.3 µM): > 0.1 µM
- IC50 (second compound 0.949 µM): > 0.1 µM
- IC50 (second compound 3 µM): > 0.1 µM
- viability, T/C (second compound 0.00949 µM, first compound 0.000316 µM): 87%
- viability, T/C (second compound 0.00949 µM, first compound 0.001 µM): 86.3%
- viability, T/C (second compound 0.00949 µM, first compound 0.00316 µM): 103%
- viability, T/C (second compound 0.00949 µM, first compound 0.01 µM): 103%
- viability, T/C [1]: 84.8%
- viability, T/C [2]: 98.1%
- viability, T/C (second compound 0.03 µM, first compound 0.000316 µM): 119%
- viability, T/C (second compound 0.03 µM, first compound 0.001 µM): 82.3%
- viability, T/C (second compound 0.03 µM, first compound 0.00316 µM): 72%
- viability, T/C (second compound 0.03 µM, first compound 0.01 µM): 91.5%
- viability, T/C [3]: 74.6%
- viability, T/C [4]: 65.5%
- viability, T/C (second compound 0.0949 µM, first compound 0.000316 µM): 137%
- viability, T/C (second compound 0.0949 µM, first compound 0.001 µM): 56.1%
- viability, T/C (second compound 0.0949 µM, first compound 0.00316 µM): 105%
- viability, T/C (second compound 0.0949 µM, first compound 0.01 µM): 82.4%
- viability, T/C [5]: 90.6%
- viability, T/C [6]: 87.5%
- viability, T/C (second compound 0.3 µM, first compound 0.000316 µM): 103%
- viability, T/C (second compound 0.3 µM, first compound 0.001 µM): 90.7%
- viability, T/C (second compound 0.3 µM, first compound 0.00316 µM): 93.7%
- viability, T/C (second compound 0.3 µM, first compound 0.01 µM): 97.3%
- viability, T/C [7]: 75.4%
- viability, T/C [8]: 91.1%
- viability, T/C (second compound 0.949 µM, first compound 0.000316 µM): 75.2%
- viability, T/C (second compound 0.949 µM, first compound 0.001 µM): 92.3%
- viability, T/C (second compound 0.949 µM, first compound 0.00316 µM): 108%
- viability, T/C (second compound 0.949 µM, first compound 0.01 µM): 72.3%
- viability, T/C [9]: 91.9%
- viability, T/C [10]: 95.8%
- viability, T/C (second compound 3 µM, first compound 0.000316 µM): 70.2%
- viability, T/C (second compound 3 µM, first compound 0.001 µM): 68.8%
- viability, T/C (second compound 3 µM, first compound 0.00316 µM): 68.3%
- viability, T/C (second compound 3 µM, first compound 0.01 µM): 74.2%
- viability, T/C [11]: 107%
- viability, T/C [12]: 85.1%

Compound: O=C(c1cc(Cc2n[nH]c(=O)c3ccccc23)ccc1F)N1CCN(C(=O)C2CC2)CC1 + CCN1C(C(=O)NC23CCC(C(=O)O)(CC2)CC3)C(c2cccc(Cl)c2F)C2(C(=O)Nc3cc(Cl)ccc32)C12CCCCC2
- IC50 (second compound 0.00949 µM): > 10 µM
- IC50 (second compound 0.03 µM): > 10 µM
- IC50 (second compound 0.0949 µM): > 10 µM
- IC50 (second compound 0.3 µM): > 10 µM
- IC50 (second compound 0.949 µM): > 10 µM
- IC50 (second compound 3 µM): > 10 µM
- viability, T/C [1]: 106%
- viability, T/C [2]: 81.9%
- viability, T/C (second compound 0.00949 µM, first compound 0.316 µM): 101%
- viability, T/C (second compound 0.00949 µM, first compound 1 µM): 81%
- viability, T/C (second compound 0.00949 µM, first compound 3.16 µM): 90.8%
- viability, T/C (second compound 0.00949 µM, first compound 10 µM): 79.4%
- viability, T/C [3]: 130%
- viability, T/C [4]: 82.9%
- viability, T/C (second compound 0.03 µM, first compound 0.316 µM): 127%
- viability, T/C (second compound 0.03 µM, first compound 1 µM): 93.2%
- viability, T/C (second compound 0.03 µM, first compound 3.16 µM): 75.2%
- viability, T/C (second compound 0.03 µM, first compound 10 µM): 74.9%
- viability, T/C [5]: 117%
- viability, T/C [6]: 103%
- viability, T/C (second compound 0.0949 µM, first compound 0.316 µM): 101%
- viability, T/C (second compound 0.0949 µM, first compound 1 µM): 77%
- viability, T/C (second compound 0.0949 µM, first compound 3.16 µM): 92.7%
- viability, T/C (second compound 0.0949 µM, first compound 10 µM): 100%
- viability, T/C [7]: 163%
- viability, T/C [8]: 94.9%
- viability, T/C (second compound 0.3 µM, first compound 0.316 µM): 99.2%
- viability, T/C (second compound 0.3 µM, first compound 1 µM): 83.3%
- viability, T/C (second compound 0.3 µM, first compound 3.16 µM): 85.2%
- viability, T/C (second compound 0.3 µM, first compound 10 µM): 72.2%
- viability, T/C [9]: 71.9%
- viability, T/C [10]: 70.6%
- viability, T/C (second compound 0.949 µM, first compound 0.316 µM): 76.5%
- viability, T/C (second compound 0.949 µM, first compound 1 µM): 86.5%
- viability, T/C (second compound 0.949 µM, first compound 3.16 µM): 85.2%
- viability, T/C (second compound 0.949 µM, first compound 10 µM): 94%
- viability, T/C [11]: 63.8%
- viability, T/C [12]: 89.3%
- viability, T/C (second compound 3 µM, first compound 0.316 µM): 94.7%
- viability, T/C (second compound 3 µM, first compound 1 µM): 73.4%
- viability, T/C (second compound 3 µM, first compound 3.16 µM): 100%
- viability, T/C (second compound 3 µM, first compound 10 µM): 76%
